Experimental data: paper PMC8151276, “An Integrated Approach toward NanoBRET Tracers for Analysis of GPCR Ligand Engagement” (Molecules, 2021)

Key:
Type in all cases: binding
CCR4 = molecular target: T1, CCR4 (Homo sapiens, UniProt P51679); test: NanoBRET screen HiBiT-CCR4 in HEK293
T1 construct: purchased Promega (in-house HiBiT-GPCR construct library, NanoBRET)
T1 sequence (P51679 1-360): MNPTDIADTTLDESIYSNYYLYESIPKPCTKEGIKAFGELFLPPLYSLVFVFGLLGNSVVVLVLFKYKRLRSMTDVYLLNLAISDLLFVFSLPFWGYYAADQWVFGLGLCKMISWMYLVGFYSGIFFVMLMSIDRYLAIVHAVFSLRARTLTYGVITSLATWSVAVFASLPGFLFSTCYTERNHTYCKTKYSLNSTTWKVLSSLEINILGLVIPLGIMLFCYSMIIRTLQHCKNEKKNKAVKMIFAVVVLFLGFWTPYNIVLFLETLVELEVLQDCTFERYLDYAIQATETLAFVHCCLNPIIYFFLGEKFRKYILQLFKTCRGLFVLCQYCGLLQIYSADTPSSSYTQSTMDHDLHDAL
Experimental: (§1) Each tracer candidate was screened across the entire library of HiBiT-GPCR constructs using NanoBRET as the detection modality. As depicted in Figure 4A, the specificity of interactions was evaluated through decrease in BRET due to competitive displacement of a bound tracer by excess parental compound. Each tracer was analyzed for binding to each HiBiT-GPCR fusion in the absence and in the presence of competing parental compound. Briefly, HEK293 cells were transfected with HiBiT-GPCR constructs diluted into promoterless DNA to reduce expression and maximize translocation to the cell surface. Each tracer candidate was then screened at concentrations of 1 μM and 0.1 μM across cells expressing these fusions. Cells were treated for 1.5 h with tracer either alone or in the presence of 20 μM competing parental compound (i.e., control). BRET was measured upon addition of purified LgBiT and subsequent complementation with HiBiT genetically fused to a GPCR. The specificity of interactions was assessed through a decrease in BRET signal due to competitive displacement of the bound tracer. To further gauge the robustness of these interactions, the fold response over the control (i.e., BRETtracer/BRETcontrol) was calculated. We chose a 1.5-fold response, which translates to ≥7-fold signal over noise as the minimal threshold required to score an interaction as positive. […]. Below we highlight the screening results obtained for our exemplary fluorescent tracers based on Clozapine, Amitriptyline and AZD1283.
(§2) HiBiT-GPCR DNA constructs were diluted in 10 mM Tris pH 8 to a final concentration of 0.01 μg/μL, arrayed in 96-well plates and stored at −20 °C. For transfection, HEK293 cells were suspended in Opti-MEM (without phenol red) supplemented with 2% fetal bovine serum (Seradigm) and 100 units/mL penicillin–streptomycin (Gibco) at a final concentration of 220,000 cells/mL and dispensed into white 96-well plates at 90 μL/well. Subsequent transfections and screens were carried using an Agilent Bravo Automated Liquid Handling Platform. First, the 96-well HiBiT DNA arrays were diluted 25-fold in Opti-MEM (without serum or phenol red) to a final concentration of 0.0004 μg/μL and 20 μL of the diluted DNAs were transferred into new 96-well plates. Next, promoterless carrier DNA (1 μg/μL) was diluted 25-fold (0.04 μg/μL) and then dispensed into the diluted arrays at 20 μL/well. Following brief mixing, Viafect transfection reagent (Promega) diluted 16-fold into Opti-MEM was dispensed into the plates at 40 μL/well. After mixing by pipetting, plates were incubated for 10 min on the pipetting station deck. The DNA-transfection reagent complexes were then added to plates containing cells. To facilitate the screen, 10 μL of DNA-transfection reagent complexes were added in duplicates to the top 4 and bottom 4 rows, resulting in two identical 48-well arrays per plate. Plates with transfected cells were incubated for 18–20 h at 37 °C/5% CO2. A screen of each tracer across the entire library using two different concentrations requires duplicate plates of transfected cells. Depending on the number of tracers being screened, transfections can be scaled up using the same ratios. The next day, for each tracer, four 20× screening solutions in tracer dilution buffer (Promega) were prepared: two duplicates at final concentration of 20 μM and two duplicates at a final concentration of 2 μM. A competing unmodified compound was added to one of each duplicate at a final concentration of 400 μM. The four resulting solutions were diluted 4-fold in Opti-MEM without serum or phenol red to generate 5× solutions (5 µM and 0.5 µM tracer +/− 100 μM competing compound). To screen the library, a BioTek MultiFlo FX liquid dispenser was used to dispense 22.5 µL of tracer solution to the top 4 rows and 22.5 µL tracer + competing compound solution to the 4 bottom rows. Plates were briefly mixed on an orbital shaker and incubated for 1.5 h at room temperature. […]

LTB4R2 = molecular target: T2, LTB4R2 (Homo sapiens, UniProt Q9NPC1); test: NanoBRET screen HiBiT-LTB4R2 in HEK293
T2 construct: purchased Promega (in-house HiBiT-GPCR construct library, NanoBRET)
T2 sequence (Q9NPC1 1-358): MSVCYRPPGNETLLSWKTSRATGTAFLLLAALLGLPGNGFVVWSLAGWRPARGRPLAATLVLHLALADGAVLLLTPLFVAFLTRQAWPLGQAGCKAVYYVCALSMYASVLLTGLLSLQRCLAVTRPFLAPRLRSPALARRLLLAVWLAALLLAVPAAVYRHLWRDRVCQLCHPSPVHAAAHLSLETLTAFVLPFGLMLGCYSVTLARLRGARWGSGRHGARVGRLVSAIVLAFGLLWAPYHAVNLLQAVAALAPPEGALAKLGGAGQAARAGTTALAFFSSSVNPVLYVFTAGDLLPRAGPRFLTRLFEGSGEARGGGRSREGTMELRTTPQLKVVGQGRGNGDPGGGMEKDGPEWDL
Experimental: as §1, §2

P2RY14 = molecular target: T3, P2RY14 (Homo sapiens, UniProt Q15391); test: NanoBRET screen HiBiT-P2RY14 in HEK293
T3 construct: purchased Promega (in-house HiBiT-GPCR construct library, NanoBRET)
T3 sequence (Q15391 1-338): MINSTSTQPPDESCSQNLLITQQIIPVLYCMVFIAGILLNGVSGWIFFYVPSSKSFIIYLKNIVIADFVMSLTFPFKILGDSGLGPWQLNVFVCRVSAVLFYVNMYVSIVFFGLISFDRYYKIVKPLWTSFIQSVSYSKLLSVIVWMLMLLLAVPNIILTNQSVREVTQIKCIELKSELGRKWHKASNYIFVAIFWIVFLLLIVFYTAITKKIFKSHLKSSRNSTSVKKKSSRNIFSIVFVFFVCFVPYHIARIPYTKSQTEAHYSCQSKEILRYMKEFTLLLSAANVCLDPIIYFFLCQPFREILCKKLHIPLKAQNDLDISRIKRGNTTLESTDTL
Experimental: as §1, §2

[1] = tracer at 0.1μM, listed as amitriptyline-b-2-NB590
[2] = tracer at 1μM, listed as amitriptyline-b-2-NB590

Structure (SMILES) | NanoBRET Fold Response (CCR4; CCR4, tracer 0.1μM) | NanoBRET Fold Response (CCR4; CCR4, tracer 1μM) | NanoBRET Fold Response (LTB4R2; LTB4R2, tracer 0.1μM) | NanoBRET Fold Response (LTB4R2; LTB4R2, tracer 1μM) | NanoBRET Fold Response (P2RY14; P2RY14, tracer 0.1μM) | NanoBRET Fold Response (P2RY14; P2RY14, tracer 1μM) | also measured
O=C(CCc1ccc2n1[B-](F)(F)[N+]1=C(c3ccc[nH]3)C=CC1=C2)NCc1ccc(C(=O)NCCOCCC(=O)N[C@@H]2CC[C@@]3(O)[C@H]4Cc5ccc(O)c6c5[C@@]3(CCN4CC3CC3)[C@H]2O6)cc1 [Naltrexone-3-NB590] | 0.32 | 0.97 | 0.89 | 1.36 | 0.95 | 1.00 | –
CCCn1c(=O)c2[nH]c(-c3ccc(OCC(=O)NCCNC(=O)CCOCCNC(=O)c4ccc(CNC(=O)CCc5ccc6n5[B-](F)(F)[N+]5=C(c7ccc[nH]7)C=CC5=C6)cc4)cc3)nc2n(CCC)c1=O [XAC-3-NB590] | 1.36 | 1.29 | 0.93 | 0.98 | 0.59 | 1.36 | –
CC(C)N(CC[C@H](c1ccccc1)c1cc(CCNC(=O)c2ccc(CNC(=O)CCc3ccc4n3[B-](F)(F)[N+]3=C(c5ccc[nH]5)C=CC3=C4)cc2)ccc1O)C(C)C [Tolterodine-BZ-NB590] | 0.95 | 0.86 | 0.91 | 0.95 | 0.86 | 0.88 | –
COc1ccc2[nH]c(-c3ccc(CNC(=O)CCOCCOCCOCCOCCNC(=O)CCc4ccc5n4[B-](F)(F)[N+]4=C(c6ccc[nH]6)C=CC4=C5)cc3)c(CCNC(C)=O)c2n1 [AzomelatoninICO9-2-NB590] | – | – | – | – | – | – | NanoBRET Fold Response (CCR4; 0.1μM tracer): 1.23; NanoBRET Fold Response (CCR4; 1μM tracer): 0.96; NanoBRET Fold Response (LTB4R2; 0.1μM tracer): 1.38; NanoBRET Fold Response (LTB4R2; 1μM tracer): 0.99; NanoBRET Fold Response (P2RY14; 0.1μM tracer): 1.21; NanoBRET Fold Response (P2RY14; 1μM tracer): 1.13
CN1CCN(C2=Nc3cc(Cl)ccc3N(CC(=O)NCCOCCOCCOCCOCCNC(=O)CCc3ccc4n3[B-](F)(F)[N+]3=C(c5ccc[nH]5)C=CC3=C4)c3ccccc32)CC1 [Clozapine-c-2-NB590] | – | – | – | – | – | – | NanoBRET Fold Response (CCR4; CCR4, 0.1μM tracer): 0.97; NanoBRET Fold Response (CCR4; CCR4, 1μM tracer): 0.72; NanoBRET Fold Response (LTB4R2; LTB4R2, 0.1μM tracer): 1.02; NanoBRET Fold Response (LTB4R2; LTB4R2, 1μM tracer): 0.91; NanoBRET Fold Response (P2RY14; P2RY14, 0.1μM tracer): 0.96; NanoBRET Fold Response (P2RY14; P2RY14, 1μM tracer): 0.89
COc1ccccc1N1CCN(CCCCN2C(=O)c3ccc(CNC(=O)CCOCCNC(=O)c4ccc(CNC(=O)CCc5ccc6n5[B-](F)(F)[N+]5=C(c7ccc[nH]7)C=CC5=C6)cc4)cc3C2=O)CC1 [NAN-190-3-NB590] | 0.85 | 1.11 | 0.76 | 1.30 | 0.95 | 1.06 | –
Cc1nc2n(c(=O)c1CCN1CCC(c3noc4cc(F)ccc34)CC1)CCCC2OC(=O)NCCOCCOCCOCCOCCNC(=O)CCc1ccc2n1[B-](F)(F)[N+]1=C(c3ccc[nH]3)C=CC1=C2 (centres unmarked) [Risperidone-2-NB590] | 1.01 | 1.22 | 0.97 | 0.94 | 1.02 | 0.93 | –
O=C(CCOCCOCCOCCOCCNC(=O)CCc1ccc2n1[B-](F)(F)[N+]1=C(c3ccc[nH]3)C=CC1=C2)NCCCN1CCN(C2=Nc3ccccc3Oc3ccc(Cl)cc32)CC1 [Loxapine-a-2-NB590] | 1.03 | 1.19 | 0.90 | 0.95 | 0.94 | 0.98 | –
COc1ccccc1N1CCN(CCCCN2C(=O)c3ccc(CNC(=O)CCOCCOCCOCCOCCNC(=O)CCc4ccc5n4[B-](F)(F)[N+]4=C(c6ccc[nH]6)C=CC4=C5)cc3C2=O)CC1 [NAN-190-2-NB590] | 0.98 | 1.12 | 0.95 | 1.05 | 1.02 | – | –
CC(C)N(CC[C@H](c1ccccc1)c1cc(CCNC(=O)CCOCCOCCOCCOCCNC(=O)CCc2ccc3n2[B-](F)(F)[N+]2=C(c4ccc[nH]4)C=CC2=C3)ccc1O)C(C)C [Tolterodine-2-NB590] | 1.29 | 1.16 | 1.00 | 1.22 | 0.93 | 1.08 | –
N#CN=C(NCCCOc1cccc(CN2CCCCC2)c1)NCCNC(=O)CCOCCOCCOCCOCCNC(=O)CCc1ccc2n1[B-](F)(F)[N+]1=C(c3ccc[nH]3)C=CC1=C2 [Aminopotentidine-2-NB590] | 1.09 | 0.96 | 0.96 | 1.04 | 0.98 | 0.91 | –
CCOC(=O)c1cc(C#N)c(N2CCC(C(=O)NS(=O)(=O)Cc3ccccc3/C=C/C(=O)NCCNC(=O)CCc3ccc4n3[B-](F)(F)[N+]3=C(c5ccc[nH]5)C=CC3=C4)CC2)nc1C [AZD1283-1-NB590] | – | – | – | – | – | – | NanoBRET Fold Response (CCR4; CCR4, 0.1μM): 1.09; NanoBRET Fold Response (CCR4; CCR4, 1μM): 1.07; NanoBRET Fold Response (LTB4R2; LTB4R2, 0.1μM): 1.17; NanoBRET Fold Response (LTB4R2; LTB4R2, 1μM): 1.18; NanoBRET Fold Response (P2RY14; P2RY14, 0.1μM): 1.14; NanoBRET Fold Response (P2RY14; P2RY14, 1μM): 1.18
CN(C)CCC=C1c2ccccc2CCc2ccc(C(=O)NCCNC(=O)CCOCCOCCOCCOCCNC(=O)CCc3ccc4n3[B-](F)(F)[N+]3=C(c5ccc[nH]5)C=CC3=C4)cc21 [Amitriptyline-b-2-NB590] | – | – | – | – | – | – | NanoBRET Fold Response (CCR4; [1]): 1.02; NanoBRET Fold Response (CCR4; tracer at 1μM): 0.95; NanoBRET Fold Response (LTB4R2; [1]): 1.03; NanoBRET Fold Response (LTB4R2; [2]): 1.03; NanoBRET Fold Response (P2RY14; [1]): 1.12; NanoBRET Fold Response (P2RY14; [2]): 0.77
